# Laboratory results from patent publication US20210317134A1, “UBIQUITIN-SPECIFIC-PROCESSING PROTEASE 7 (USP7) MODULATORS AND USES THEREOF” (RAPT THERAPEUTICS, INC., priority 2019, published 2021).
# Target: USP7 (Homo sapiens, UniProt Q93009)
# Experiment: USP7 inhibitory potency (Table 1)
# Type: biochemical
# Sequence of USP7 (Q93009 whole entry): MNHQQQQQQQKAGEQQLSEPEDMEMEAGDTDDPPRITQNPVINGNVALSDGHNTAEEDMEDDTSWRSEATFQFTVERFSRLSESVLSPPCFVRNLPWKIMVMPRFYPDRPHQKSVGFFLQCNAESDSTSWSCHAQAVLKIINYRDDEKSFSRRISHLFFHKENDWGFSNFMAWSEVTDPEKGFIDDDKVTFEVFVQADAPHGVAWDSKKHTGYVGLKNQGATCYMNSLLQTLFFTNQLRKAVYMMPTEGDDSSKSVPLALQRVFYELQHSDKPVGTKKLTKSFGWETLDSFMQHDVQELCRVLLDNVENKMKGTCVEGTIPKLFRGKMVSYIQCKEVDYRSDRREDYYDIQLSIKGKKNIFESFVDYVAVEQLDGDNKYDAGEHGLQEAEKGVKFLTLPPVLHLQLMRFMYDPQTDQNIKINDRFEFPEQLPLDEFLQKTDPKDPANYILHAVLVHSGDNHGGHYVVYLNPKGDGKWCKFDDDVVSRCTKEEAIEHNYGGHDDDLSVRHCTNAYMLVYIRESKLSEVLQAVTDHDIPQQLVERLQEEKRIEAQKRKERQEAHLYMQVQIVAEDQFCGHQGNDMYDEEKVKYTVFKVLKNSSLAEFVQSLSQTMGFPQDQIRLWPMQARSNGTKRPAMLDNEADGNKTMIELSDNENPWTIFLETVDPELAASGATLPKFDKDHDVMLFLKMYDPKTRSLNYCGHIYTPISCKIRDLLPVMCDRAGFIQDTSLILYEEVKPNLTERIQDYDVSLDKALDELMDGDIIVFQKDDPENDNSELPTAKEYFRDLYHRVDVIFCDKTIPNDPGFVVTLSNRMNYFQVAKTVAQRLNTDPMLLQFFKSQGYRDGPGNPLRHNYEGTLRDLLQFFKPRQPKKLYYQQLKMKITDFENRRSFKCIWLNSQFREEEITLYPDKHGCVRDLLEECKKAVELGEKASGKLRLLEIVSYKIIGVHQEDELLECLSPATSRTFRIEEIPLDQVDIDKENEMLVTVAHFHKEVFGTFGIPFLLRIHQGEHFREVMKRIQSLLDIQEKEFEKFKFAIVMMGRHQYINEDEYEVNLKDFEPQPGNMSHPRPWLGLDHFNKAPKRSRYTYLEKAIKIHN
row,Structure (SMILES),IC50
1,"N#Cc1ccc2c(-c3cc(Cl)cc4c3O[C@@H](c3onc5c3CNCC5)C4)ccnc2c1 [(R)-4-(5-chloro-2-(4,5,6,7-tetrahydroisoxazolo[4,3-c]pyridin-3-yl)-2,3-dihydrobenzofuran-7-yl)quinoline-7-carbonitrile]",< 1000 nM
2,"NC(=O)c1ccc2c(-c3cc(Cl)cc4c3O[C@@H](c3onc5c3CNCC5)C4)ccnc2c1 [(R)-4-(5-chloro-2-(4,5,6,7-tetrahydroisoxazolo[4,3-c]pyridin-3-yl)-2,3-dihydrobenzofuran-7-yl)quinoline-7-carboxamide]",1000 to 10000 nM
3,"CN1CCc2noc([C@H]3Cc4cc(Cl)cc(-c5ccnc6cc(C#N)ccc56)c4O3)c2C1 [(R)-4-(5-chloro-2-(5-methyl-4,5,6,7-tetrahydroisoxazolo[4,3-c]pyridin-3-yl)-2,3-dihydrobenzofuran-7-yl)quinoline-7-carbonitrile]",1000 to 10000 nM
4,"Clc1cc2c(c(-c3ccnc4ccsc34)c1)O[C@@H](c1ocnc1CN1CCC1)C2 [(R)-4-(azetidin-1-ylmethyl)-5-(5-chloro-7-(thieno[3,2-b]pyridin-7-yl)-2,3-dihydrobenzofuran-2-yl)oxazole]",< 1000 nM
5,"CNCCNC(=O)[C@H]1Cc2cc(Cl)cc(-c3ccnc4cc(CO)sc34)c2O1 [(R)-5-chloro-7-(2-(hydroxymethyl)thieno[3,2-b]pyridin-7-yl)-N-(2-(methylamino)ethyl)-2,3-dihydrobenzofuran-2-carboxamide]",< 1000 nM
6,"N#Cc1cc2c(c(-c3ccnc4cc(CO)sc34)c1)O[C@@H](C(=O)N1CCNCC1)C2 [(R)-7-(2-(hydroxymethyl)thieno[3,2-b]pyridin-7-yl)-2-(piperazine-1-carbonyl)-2,3-dihydrobenzofuran-5-carbonitrile]",< 1000 nM
7,"Cn1nc([C@H]2Cc3cc(Cl)cc(-c4ccnc5ccsc45)c3O2)c2c1CCNC2 [(R)-7-(5-chloro-2-(1-methyl-4,5,6,7-tetrahydro-1H-pyrazolo[4,3-c]pyridin-3-yl)-2,3-dihydrobenzofuran-7-yl)thieno[3,2-b]pyridine]",1000 to 10000 nM
8,"Cn1nc2c(c1[C@H]1Cc3cc(Cl)cc(-c4ccnc5ccsc45)c3O1)CNCC2 [(R)-7-(5-chloro-2-(2-methyl-4,5,6,7-tetrahydro-2H-pyrazolo[4,3-c]pyridin-3-yl)-2,3-dihydrobenzofuran-7-yl)thieno[3,2-b]pyridine]",< 1000 nM
9,"Clc1cc2c(c(-c3ccnc4ccsc34)c1)O[C@@H](c1[nH]nc3c1CNCC3)C2 [(R)-7-(5-chloro-2-(4,5,6,7-tetrahydro-2H-pyrazolo[4,3-c]pyridin-3-yl)-2,3-dihydrobenzofuran-7-yl)thieno[3,2-b]pyridine]",< 1000 nM
10,"N#Cc1cc2nccc(-c3cc(Cl)cc4c3O[C@@H](C(=O)N3CCNCC3)C4)c2o1 [(R)-7-(5-chloro-2-(piperazine-1-carbonyl)-2,3-dihydrobenzofuran-7-yl)furo[3,2-b]pyridine-2-carbonitrile]",1000 to 10000 nM
11,"N#Cc1cc2nccc(-c3cc(Cl)cc4c3O[C@@H](C(=O)N3CCNCC3)C4)c2s1 [(R)-7-(5-chloro-2-(piperazine-1-carbonyl)-2,3-dihydrobenzofuran-7-yl)thieno[3,2-b]pyridine-2-carbonitrile]",1000 to 10000 nM
12,"Cn1nc([C@H]2Cc3cc(Cl)cc(-c4ccnc5cc(Cl)ccc45)c3O2)c2c1CCNC2 [(R)-7-chloro-4-(5-chloro-2-(1-methyl-4,5,6,7-tetrahydro-1H-pyrazolo[4,3-c]pyridin-3-yl)-2,3-dihydrobenzofuran-7-yl)quinoline]",10000 to 30000 nM
13,"Cn1nc2c(c1[C@H]1Cc3cc(Cl)cc(-c4ncnc5cc(Cl)ccc45)c3O1)CNCC2 [(R)-7-chloro-4-(5-chloro-2-(2-methyl-4,5,6,7-tetrahydro-2H-pyrazolo[4,3-c]pyridin-3-yl)-2,3-dihydrobenzofuran-7-yl)quinazoline]",< 1000 nM
14,"Clc1cc2c(c(-c3ccnc4cc(Cl)ccc34)c1)O[C@@H](c1[nH]nc3c1CNCC3)C2 [(R)-7-chloro-4-(5-chloro-2-(4,5,6,7-tetrahydro-2H-pyrazolo[4,3-c]pyridin-3-yl)-2,3-dihydrobenzofuran-7-yl)quinoline]",1000 to 10000 nM
